Laboratory results as given in PubChem BioAssay AID2060508 (Molecular Pharmacology Branch, DTP, NCI, 2025).
pIC50: −log10 of the molar value.

System: 454973-116-R2-J3-PDC spheroids, viability, % test/control
Test: Anticancer human tumor 454973-116-R2-J3-PDC patient-derived pancreatic carcinoma cell line growth inhibition [GQUAD]
Settings: spheroids with HUVEC and MSC; for pIC50: curve of first compound; for viability, T/C: stronger effect = lower value
Method in brief: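 Viability of tumor cells grown as complex spheroids with endothelial and stromal cells, exposed to drug combinations. Top concentration at or near clinical Cmax (else 10 microM), diluted in half-log increments.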

[1] = second compound 0.0316 µM, first compound 0.0316 µM
[2] = second compound 0.0316 µM, first compound 0.1 µM
[3] = second compound 0.0316 µM, first compound 0.316 µM
[4] = second compound 0.0316 µM, first compound 1 µM
[5] = second compound 0.0316 µM, first compound 3.16 µM
[6] = second compound 0.0316 µM, first compound 10 µM
[7] = second compound 0.1 µM, first compound 0.0316 µM
[8] = second compound 0.1 µM, first compound 0.1 µM
[9] = second compound 0.1 µM, first compound 0.316 µM
[10] = second compound 0.1 µM, first compound 1 µM
[11] = second compound 0.1 µM, first compound 3.16 µM
[12] = second compound 0.1 µM, first compound 10 µM
[13] = second compound 0.316 µM, first compound 0.0316 µM
[14] = second compound 0.316 µM, first compound 0.1 µM
[15] = second compound 0.316 µM, first compound 0.316 µM
[16] = second compound 0.316 µM, first compound 1 µM
[17] = second compound 0.316 µM, first compound 3.16 µM
[18] = second compound 0.316 µM, first compound 10 µM
[19] = second compound 1 µM, first compound 0.0316 µM
[20] = second compound 1 µM, first compound 0.1 µM
[21] = second compound 1 µM, first compound 0.316 µM
[22] = second compound 1 µM, first compound 1 µM
[23] = second compound 1 µM, first compound 3.16 µM
[24] = second compound 1 µM, first compound 10 µM
[25] = second compound 3.16 µM, first compound 0.0316 µM
[26] = second compound 3.16 µM, first compound 0.1 µM
[27] = second compound 3.16 µM, first compound 0.316 µM
[28] = second compound 3.16 µM, first compound 1 µM
[29] = second compound 3.16 µM, first compound 3.16 µM
[30] = second compound 3.16 µM, first compound 10 µM
[31] = second compound 10 µM, first compound 0.0316 µM
[32] = second compound 10 µM, first compound 0.1 µM
[33] = second compound 10 µM, first compound 0.316 µM
[34] = second compound 10 µM, first compound 1 µM
[35] = second compound 10 µM, first compound 3.16 µM
[36] = second compound 10 µM, first compound 10 µM
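Also: spheroids exposed to compounds for seven days.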
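For viability, T/C in this document: 100% = DMSO vehicle control viability.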

COc1cc(C2c3cc4c(cc3C(OC3OC5COC(C)OC5C(O)C3O)C3COC(=O)C23)OCO4)cc(OC)c1O (stereo unspecified) + CN(C)c1ccc(Nc2c3ccc(NC(=O)CCN4CCCC4)cc3nc3cc(NC(=O)CCN4CCCC4)ccc23)cc1
pIC50 (second compound 0.0316 µM): 5.91
pIC50 (second compound 0.1 µM): 5.90
pIC50 (second compound 0.316 µM): 5.96
pIC50 (second compound 1 µM): 6.10
pIC50 (second compound 3.16 µM): 6.13
pIC50 (second compound 10 µM): 6.09
viability, T/C [1]: 102%
viability, T/C [2]: 95.6%
viability, T/C [3]: 87.9%
viability, T/C [4]: 55.1%
viability, T/C [5]: 25.9%
viability, T/C [6]: 15%
viability, T/C [7]: 106%
viability, T/C [8]: 98.7%
viability, T/C [9]: 89.1%
viability, T/C [10]: 58.8%
viability, T/C [11]: 21.3%
viability, T/C [12]: 15.3%
viability, T/C [13]: 97.3%
viability, T/C [14]: 98.7%
viability, T/C [15]: 78.8%
viability, T/C [16]: 51.8%
viability, T/C [17]: 27.2%
viability, T/C [18]: 14.3%
viability, T/C [19]: 105%
viability, T/C [20]: 89.1%
viability, T/C [21]: 78%
viability, T/C [22]: 39.4%
viability, T/C [23]: 28.7%
viability, T/C [24]: 15.7%
viability, T/C [25]: 89.2%
viability, T/C [26]: 88.7%
viability, T/C [27]: 80.5%
viability, T/C [28]: 38.5%
viability, T/C [29]: 31.6%
viability, T/C [30]: 16.3%
viability, T/C [31]: 79.2%
viability, T/C [32]: 71.3%
viability, T/C [33]: 66.2%
viability, T/C [34]: 45.5%
viability, T/C [35]: 31.8%
viability, T/C [36]: 20.9%

Cc1cccc(N(C)C(=O)C2C(O)CCN2c2nc(C)cc(C(F)(F)F)c2C#N)c1 (stereo unspecified) + CN(C)c1ccc(Nc2c3ccc(NC(=O)CCN4CCCC4)cc3nc3cc(NC(=O)CCN4CCCC4)ccc23)cc1
pIC50 (second compound 0.0316 µM): < 5.00
pIC50 (second compound 0.1 µM): < 5.00
pIC50 (second compound 0.316 µM): < 5.00
pIC50 (second compound 1 µM): < 5.00
pIC50 (second compound 3.16 µM): < 5.00
pIC50 (second compound 10 µM): < 5.00
viability, T/C [1]: 106%
viability, T/C [2]: 102%
viability, T/C [3]: 103%
viability, T/C [4]: 98.1%
viability, T/C [5]: 109%
viability, T/C [6]: 100%
viability, T/C [7]: 102%
viability, T/C [8]: 106%
viability, T/C [9]: 98.6%
viability, T/C [10]: 98%
viability, T/C [11]: 92.6%
viability, T/C [12]: 105%
viability, T/C [13]: 102%
viability, T/C [14]: 92.9%
viability, T/C [15]: 97.7%
viability, T/C [16]: 103%
viability, T/C [17]: 93.9%
viability, T/C [18]: 93.8%
viability, T/C [19]: 93.4%
viability, T/C [20]: 99.8%
viability, T/C [21]: 92%
viability, T/C [22]: 77.8%
viability, T/C [23]: 92%
viability, T/C [24]: 100%
viability, T/C [25]: 92.5%
viability, T/C [26]: 90%
viability, T/C [27]: 85%
viability, T/C [28]: 70.4%
viability, T/C [29]: 86.1%
viability, T/C [30]: 84.4%
viability, T/C [31]: 74%
viability, T/C [32]: 74.7%
viability, T/C [33]: 60.5%
viability, T/C [34]: 72.4%
viability, T/C [35]: 74.5%
viability, T/C [36]: 65.1%

C=CCn1c(=O)c2cnc(Nc3ccc(N4CCN(C)CC4)cc3)nc2n1-c1cccc(C(C)(C)O)n1 + Cc1[nH]c2ccc(F)cc2c1-c1nc2c3cccnc3c3ncccc3c2[nH]1
pIC50 (second compound 0.0316 µM): 6.44
pIC50 (second compound 0.1 µM): 6.32
pIC50 (second compound 0.316 µM): 6.40
pIC50 (second compound 1 µM): 6.36
pIC50 (second compound 3.16 µM): 6.47
pIC50 (second compound 10 µM): 6.47
viability, T/C [1]: 124%
viability, T/C [2]: 92.8%
viability, T/C [3]: 60.4%
viability, T/C [4]: 15.3%
viability, T/C [5]: 7.69%
viability, T/C [6]: 10.2%
viability, T/C [7]: 101%
viability, T/C [8]: 95.5%
viability, T/C [9]: 69.8%
viability, T/C [10]: 15%
viability, T/C [11]: 6.68%
viability, T/C [12]: 11.6%
viability, T/C [13]: 105%
viability, T/C [14]: 99%
viability, T/C [15]: 58.7%
viability, T/C [16]: 16.7%
viability, T/C [17]: 7.33%
viability, T/C [18]: 12.1%
viability, T/C [19]: 111%
viability, T/C [20]: 96.2%
viability, T/C [21]: 63.4%
viability, T/C [22]: 18.3%
viability, T/C [23]: 6.95%
viability, T/C [24]: 12.4%
viability, T/C [25]: 101%
viability, T/C [26]: 98.6%
viability, T/C [27]: 51.8%
viability, T/C [28]: 14.2%
viability, T/C [29]: 7.78%
viability, T/C [30]: 12.1%
viability, T/C [31]: 100%
viability, T/C [32]: 78.4%
viability, T/C [33]: 57.6%
viability, T/C [34]: 14.1%
viability, T/C [35]: 7.95%
viability, T/C [36]: 12.3%
